The text below walks through data of US6841560B2, “Substituted isoquinoline derivatives and their use as anticonvulsants” (SmithKline Beecham p.l.c., priority 1997, dated 2005).

The subject of the first series is maximal (tonic hindlimb extension) electroshock seizures in male rats. Nature of the series: Maximal electroshock seizure (MEST) threshold test, rat model. The class given is in vivo. The conditions noted are these: 2 mg/kg p.o. at 2 h, suspended in 1% methyl cellulose. As for the experimental part:
(§1) The maximal electroshock seizure (MEST) threshold test in rodents is particularly sensitive for detecting potential anticonvulsant properties^1. In this model, anticonvulsant agents elevate the threshold to electrically-induced seizures whilst proconvulsants lower the seizure threshold.
The threshold for maximal (tonic hindlimb extension) electroshock seizures in male rats (Sprague Dawley, 80-150 g, 6 weeks old) was determined by a Hugo Sachs Electronik stimulator which delivered a constant current (0.3 sec duration, from 1-300 mA in steps of 5-20 mA). The procedure is similar to that outlined above for mouse and full details are as published by Upton et al,.^4
The percentage increase or decrease in CC50 for each group compared to the control is calculated.
Drugs are suspended in 1% methyl cellulose.
On the technique in general: Protection in the maximal electroshock model is a classic sign of anticonvulsant action.
Regarding `CC(C)c1ccc(C(=O)Nc2ccc3c(c2)CN(C)CC3)cc1C#N.Cl` [Example 67, N-(2-Methyl-1,2,3,4-tetrahydroisoquinolin-7-yl)-3-cyano-4-iso-propylbenzamide, hydrochloride], the “increase in CC50 (seizure threshold) compared to control” value is on record as 303%.
On the same count and under the same terms, then `CC(C)Oc1ccc(C(=O)Nc2ccc3c(c2)CN(C)CC3)cc1Cl` [Example 48, N-(2-Methyl-1,2,3,4-tetrahydroisoquinolin-7-yl)-3-chloro-4-iso-propoxybenzamide], with 389%; and `COc1ccc(C(=O)Nc2ccc3c(c2)CN(C)CC3)cc1C(F)(F)F` [Example 51, N-(2-Methyl-1,2,3,4-tetrahydroisoquinolin-7-yl)-4-methoxy-3-trifluoromethylbenzamide], with 545%.
Same read-out and setting: next, `CCOc1ccc(C(=O)Nc2ccc3c(c2)CN(C)CC3)cc1Br` [Example 49, N-(2-Methyl-1,2,3,4-tetrahydroisoquinolin-7-yl)-3-bromo-4-ethoxybenzamide]: 325%.

Tested on in another series: not given
Experiment: not given
Conditions: not given
As to `CN1CCc2ccc(NC(=O)c3cccc(C(=O)C(C)(C)C)c3)cc2C1.Cl`, the melting point (as a rule, the temperature of the solid-liquid transition) was in the range of 197 to 201 °C.
Take `O=C(Nc1ccc2c(c1)CNCC2)c1ccc(Cl)s1.O=C(O)C(F)(F)F` [Example 1, N-(1,2,3,4-Tetrahydroisoquinolin-7-yl)-5-chlorothiophene-2-carboxamide, monotrifluoroacetate]: the melting point lay in the range of 153 to 155 °C.

For a further series, the system named is electrically-induced seizures in mice. Nature of the series: Maximal electroshock seizure (MEST) threshold test, mouse model. The series is classed as in vivo. The conditions noted are these: 10 mg/kg oral, suspension in methyl cellulose, one hour post dosing. As for the experimental part:
as §1
Mice (naive male, Charles River, U.K. CD1 strain, 25-30 g) are randomly assigned to groups of 10-20 and dosed orally or intraperitoneally at a dose volume of 10 ml/kg with various doses of compound (0.3-300 mg/kg) or vehicle. Mice are then subjected at 30 or 60 min post dose to a single electroshock (0.1 sec, 50 Hz, sine wave form) administered via corneal electrodes. The mean current and standard error required to induce a tonic seizure in 50% (CC50) of the mice in a particular treatment group is determined by the ‘up and down’ method of Dixon and Mood (1948)^2. Statistical comparisons between vehicle- and drug-treated groups are made using the method of Litchfield and Wilcoxon (1949)^3.
In control animals the CC50 is usually 14-18 mA. […] If a tonic convulsion does occur, then the current is decreased, and so on until all the animals in the group have been tested.
Studies are carried out using a Hugo Sachs Electronik Constant Current Shock Generator with totally variable control of shock level from 0 to 300 mA and steps of 2 mA are usually used.
`CN1CCc2ccc(NC(=O)c3ccc(C(C)(C)C)cc3)cc2C1` [Example 5, N-(2-Methyl-1,2,3,4-tetrahydroisoquinolin-7-yl)-4-t-butylbenzamide]: the “increase in seizure threshold” value was 36%.
Turning to `CN1CCc2ccc(NC(=O)c3ccc(Oc4ccccc4)cc3)cc2C1` [Example 7, N-(2-Methyl-1,2,3,4-tetrahydroisoquinolin-7-yl)-4-phenoxybenzamide], the “increase in seizure threshold” value is listed as 23%.
On to `CC(C)Oc1ccc(C(=O)Nc2ccc3c(c2)CN(C)CC3)cc1` [Example 6, N-(2-Methyl-1,2,3,4-tetrahydroisoquinolin-7-yl)-4-iso-propoxybenzamide], for which the “increase in seizure threshold” value amounted to 90%.
With `CN1CCc2ccc(NC(=O)c3cccc(Cl)c3)cc2C1` [Example 4, N-(2-Methyl-1,2,3,4-tetrahydroisoquinolin-7-yl)-3-chlorobenzamide], the “increase in seizure threshold” value is on record as 24%.
